Data as given in patent publication US11452731B2, “Method of treating and preventing loss of cognition” (ENDORECHERCHE, INC., priority 2009, dated 2022).

Assays:
[1] = 6 months; cited from earlier work
[2] = Uterine, vaginal and body weight in estrone-supplemented OVX nude mice (Example 1); assay type: in vivo
Description: DHEA was dissolved in 50% ethanol 50% propylene glycol. […] Tumors were measured once a week with Vernier calipers.

[3] = 5-week treatment of ovariectomized rats with SERMs alone or with DHEA: BMD of lumbar spine, femur, tibia (Example 5); assay type: in vivo, rat; settings: OVX rats, 5 weeks; for LUMBAR SPINE (L2-L4) BMD / LUMBAR SPINE (L2-L4) Prevention of Bone Loss: SERMs 2.5 mg/kg, DHEA 80 mg/kg
Description: (§1) Ten to twelve week-old female Sprague-Dawley rats (Crl:CD(SD)Br) (Charles River Laboratory, St-Constant, Canada) weighing approximately 220-270 g at start of treatment were used. The animals were acclimatized to the environmental conditions (temperature: 22±3° C.; humidity: 50±20%; 12-h light-12-h dark cycles, lights on at 07:15 h) for at least 1 week before starting the experiments. The animals were housed individually and were allowed free access to tap water and a pelleted certified rodent feed (Lab Diet 5002, Ralston Purina, St-Louis, Mo.). Experiments were conducted in an animal facility approved by the Canadian Council on Animal Care (CCAC) and the Association for Assessment and Accreditation of Laboratory Animal Care (AAALAC) in accordance with the CCAC Guide for Care and Use of Experimental Animals.
On day 1 of the study, the animals of the appropriate groups were bilaterally ovariectomized (Ovx) under isoflurane anesthesia. The DHEA was applied topically on the dorsal skin as a solution in 50% ethanol-50% propylene glycol while the tested SERMs were administered as suspension in 0.4% methylcellulose by oral gavage. Treatments were initiated on day 2 of the study and were performed once daily during 5 weeks.
After 5 weeks of treatment, individual rats under Isoflurane anesthesia had their lumbar spine, femur and tibia scanned using dual energy x-ray absorptiometry (DEXA; QDR 4500A, Hologic, Waltham, Mass.) and a Regional High Resolution Scan software. The bone mineral density (BMD) of the lumbar spine (vertebrae L2 to L4), distal femoral metaphysis (DFM) and proximal tibial metaphysis (PTM) were determined.

[4] = 3-month treatment of ovariectomized rats: lumbar spine BMD, total body fat, serum cholesterol, ALP (Example 4, experiment 1); assay type: in vivo, rat; settings: OVX rats, 3 months; for LUMBAR SPINE BMD / LUMBAR SPINE Prevention of Bone Loss: E2 1 mg/kg, EM-652.HCl 2.5 mg/kg, DHEA 80 mg/kg
Description: as §1
On day 1 of the study, the animals of the appropriate groups were bilaterally ovariectomized (OVX) under isoflurane anesthesia. The DHEA was applied topically on the dorsal skin as a solution in 50% ethanol-50% propylene glycol while the other tested compounds were administered as suspension in 0.4% methylcellulose by oral gavage. Treatments were initiated on day 2 of the study and were performed once daily during 3 months.
After 3 months (experiment 1) or 26 weeks (experiment 2) of treatment, individual rats under Isoflurane anesthesia had their whole body skeleton and lumbar spine scanned using dual energy x-ray absorptiometry (DEXA; QDR 4500A, Hologic, Waltham, Mass.) and a Regional High Resolution Scan software. The bone mineral density (BMD) of the lumbar spine (vertebrae L2 to L4) and the total body composition (fat percentage) were determined.
After 3 months (experiment 1) or 26 weeks (experiment 2) of treatment, blood samples were collected at the jugular vein from overnight fasted animals (under Isoflurane anesthesia). Samples were processed for serum preparation and frozen at −80° C. until assay. Serum cholesterol levels and alkaline phospatase activity (ALP) were determined using the Boehringer Mannheim Diagnostic Hitachi 911 Analyzer (Boehringer Mannheim Diagnostic Laboratory Systems).

[5] = Uterine and vaginal weight in ovariectomized BALB/c mice treated orally for 9 days with or without estrone (Example 3); assay type: in vivo; settings: for inhibition of estrone-stimulated uterine weight / inhibition of vaginal weight (estrone-stimulated): OVX mice + estrone, oral 9 days
Procedure, shortened: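 OVX BALB/c mice (18-20 g) were dosed orally by gavage once daily for 9 days from day 2 post-OVX, with or without estrone s.c. twice daily from day 5 for 6 days. The vehicle was 4% ethanol in 0.4% methylcellulose. Uterine and vaginal weights were taken on the 11th morning after OVX.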

[6] = OVX mice, absence of estrone, 10 μg daily (no-effect statements: 1 μg and 10 μg)

Row | Compound | DISTAL FEMORAL METAPHYSIS (DFM) BMD [3] [g/cm^2] | DISTAL FEMORAL METAPHYSIS (DFM) Prevention of Bone Loss [3] [%] | PROXIMAL TIBIAL METAPHYSIS (PFM) BMD [3] [g/cm^2] | PROXIMAL TIBIAL METAPHYSIS (PFM) Prevention of Bone Loss [3] [%] | LUMBAR SPINE (L2-L4) BMD [3] [g/cm^2] | LUMBAR SPINE (L2-L4) Prevention of Bone Loss [3] [%] | ALP (serum alkaline phosphatase activity) [4] [IU/L] | CHOLESTEROL (serum) [4] [mmol/L] | LUMBAR SPINE BMD [4] [g/cm^2] | LUMBAR SPINE Prevention of Bone Loss [4] [%] | other results
1 | C[C@]12CC[C@H](O)CC1=CC[C@@H]1[C@@H]2CC[C@]2(C)C(=O)CC[C@@H]12 [DHEA, dehydroepiandrosterone] | 0.2934 ± 0.0046 | 71 | 0.2672 ± 0.0041 | 42 | 0.2144 ± 0.0028 | 44 | 224±18 | 1.59 ± 0.10 | 0.2321 ± 0.0034 | 43 | decrease of total body fat mass [1]: 1.4 kg; increase of fat-free mass [1]: 0.9 kg; effect on body weight adjusted for tumor weight ([2]; 9.5 months): No significant effect; inhibition of the stimulatory effect of estrone on uterine weight ([2]; highest dose of DHEA used): 26%; TOTAL FAT [4]: 17.3 ± 1.5 %
2 | CC1=C(c2ccc(O)cc2)[C@H](c2ccc(OCCN3CCCCC3)cc2)Oc2cc(O)ccc21.Cl [EM-652.HCl, (S)-(+)-7-hydroxy-3-(4′-hydroxyphenyl)-4-methyl-2-(4″-(2′″-piperidinoethoxy)phenyl)-2H-1-benzopyran hydrochloride] | 0.3008 ± 0.0055 | 95 | 0.2806 ± 0.0035 | 92 | 0.2232 ± 0.0031 | 86 | 91 ± 6 | 0.87 ± 0.04 | 0.2374 ± 0.0027 | 65 | inhibition of estrone-stimulated uterine weight ([5]; 1 μg daily): 24%; inhibition of vaginal weight (estrone-stimulated) ([5]; 1 μg daily): 10%; inhibition of estrone-stimulated uterine weight ([5]; 3 μg daily): 48%; inhibition of vaginal weight (estrone-stimulated) ([5]; 3 μg daily): 25%; inhibition of estrone-stimulated uterine weight ([5]; 10 μg daily): 72%; inhibition of vaginal weight (estrone-stimulated) ([5]; 10 μg daily): 53%; stimulation of uterine weight (estrogenic effect) [5, 6]: no significant stimulatory effect; stimulation of vaginal weight (estrogenic effect) [5, 6]: no significant stimulatory effect; TOTAL FAT ([4]; hydrochloride): completely prevented; TOTAL FAT ([4]; listed as EM-652•HCl, hydrochloride): 23.2 ± 1.4 %
